Laboratory results: patent US20250325547A1, “ANTI-SARS-COV-2 DRUG” (KAGOSHIMA UNIVERSITY, priority 2021, published 2025)
Like-named read-outs stand apart in the source and are kept apart here.

Legend:
Format in all cases: cell-based
[1] = tested on: SARS-CoV-2 Alpha strain (QK002)
[2] = tested on: SARS-CoV-2 Beta strain (TY8-612)
[3] = tested on: SARS-CoV-2 Gamma strain (TY7-501)
[4] = Alpha strain (QK002), CPE assay in Vero/TMPRSS2
[5] = Beta strain (TY8-612), CPE assay in Vero/TMPRSS2
[6] = Gamma strain (TY7-501), CPE assay in Vero/TMPRSS2

## CCN(Cc1cc(Nc2ncnc3ccccc23)cc(Cl)c1O)C(C)C [Compound 11]
[1]; [4]
  EC50: 3.8 µM
[2]; [5]
  EC50: 9.3 µM
[3]; [6]
  EC50: 5.4 µM

## CC(C)N(Cc1cc(Nc2ncnc3ccccc23)cc(Cl)c1O)C(C)C [Compound 15]
[1]; [4]
  EC50: 2.7 µM
[2]; [5]
  EC50: 6.8 µM
[3]; [6]
  EC50: 3.5 µM

## CCN(Cc1cc(Nc2ncnc3ccccc23)cc(Cl)c1O)C1CCCCC1 [Compound 19]
[1]
  EC50: 5.8 µM
[2]
  EC50: 8.6 µM
[3]
  EC50: 4.2 µM
